Measured values published in ChEMBL document CHEMBL4219051, “Cyclin-Dependent Kinase 8: A New Hope in Targeted Cancer Therapy?” (J Med Chem, 2018).

What was measured:
[1] = tested on: HCT-116; experiment: cells; conditions: Homo sapiens
[2] = molecular target: Receptor-type tyrosine-protein kinase FLT3 (Homo sapiens) (UniProt P36888); experiment: Inhibition of FLT3 (unknown origin) at 1 uM relative to control
[3] = tested on: HL-60; experiment: Growth inhibition of human HL60 cells by alamar blue assay; assay type: functional
[4] = molecular target: T1, CDK8/Cyclin C (Homo sapiens, UniProt P49336); experiment: Inhibition of CDK8/Cyclin-C (unknown origin) in presence of [gamma33P]ATP by radiometric method; assay type: protein-complex assay
[5] = Growth inhibition of human SKNO1 cells by alamar blue assay; assay type: functional; conditions: SKNO-1
[6] = molecular target: Cyclin-C/Cyclin-dependent kinase 19 (Homo sapiens, UniProt Q9BWU1); experiment: Inhibition of CDK19/Cyclin-C (unknown origin) in presence of [gamma33P]ATP by radiometric method; assay type: protein-complex assay
[7] = tested on: OCI-AML-3; experiment: Growth inhibition of human OCI-AML3 cells by alamar blue assay; assay type: functional
[8] = Growth inhibition of human MOLM6 cells by alamar blue assay; assay type: functional
[9] = tested on: KG-1; experiment: Growth inhibition of human KG1 cells by alamar blue assay; assay type: functional
[10] = tested on: MV4-11; experiment: Growth inhibition of human MV4-11 cells by alamar blue assay; assay type: functional
[11] = tested on: OCI-AML2; experiment: Growth inhibition of human OCI-AML2 cells by alamar blue assay; assay type: functional
[12] = Growth inhibition of human MOLM16 cells by alamar blue assay; assay type: functional
[13] = molecular target: Mitogen-activated protein kinase kinase kinase kinase 2 (Homo sapiens) (UniProt Q12851); experiment: Inhibition of MAP4K2 (unknown origin) at 2 uM relative to control
[14] = molecular target: Mitogen-activated protein kinase kinase kinase 19 (Homo sapiens) (UniProt Q56UN5); experiment: Inhibition of YSK4 (unknown origin) at 2 uM relative to control
[15] = molecular target: T1, CDK8/Cyclin C; experiment: Inhibition of CDK8/CCNC (unknown origin) using RBER-IRStide as substrate in presence of [gamma33P]ATP by radiometric method; assay type: protein-complex assay
[16] = molecular target: Rho-associated protein kinase 1 (Homo sapiens, UniProt Q13464); experiment: Inhibition of ROCK1 (unknown origin)
[17] = tested on: TF-1; experiment: Growth inhibition of human TF1 cells after 10 days by CellTiter-Glo assay; assay type: functional; conditions: TF-1, 240 h
[18] = molecular target: Rho-associated protein kinase 2 (Homo sapiens, UniProt O75116); experiment: Inhibition of ROCK2 (unknown origin)
[19] = Growth inhibition of human UKE1 cells after 10 days by CellTiter-Glo assay; assay type: functional; conditions: UKE1, 240 h
[20] = tested on: MEG-01; experiment: Growth inhibition of human MEG01 cells after 10 days by CellTiter-Glo assay; assay type: functional; conditions: MEG-01, 240 h
[21] = tested on: MOLM-14; experiment: Growth inhibition of human MOLM14 cells after 10 days by CellTiter-Glo assay; assay type: functional; conditions: MOLM-14, 240 h
[22] = tested on: HCT-116; experiment: Growth inhibition of human HCT116 cells after 7 days by CellTiter-Glo assay; assay type: functional; conditions: HCT-116, 168 h
[23] = Growth inhibition of human SKNO1 cells after 10 days by CellTiter-Glo assay; assay type: functional; conditions: SKNO-1, 240 h
[24] = tested on: RS4-11; experiment: Growth inhibition of human RS4:11 cells after 10 days by CellTiter-Glo assay; assay type: functional; conditions: RS4-11, 240 h
[25] = tested on: SET-2; experiment: Growth inhibition of human SET2 cells after 10 days by CellTiter-Glo assay; assay type: functional; conditions: SET-2, 240 h
[26] = molecular target: T2, Cyclin-dependent kinase 19 (Homo sapiens, UniProt Q9BWU1); experiment: Inhibition of CDK19 (unknown origin) in presence of [gamma33P]ATP by radiometric method
[27] = tested on: SET-2; experiment: Antitumor activity against human SET2 cells xenografted in SCID Beige mouse assessed as tumor growth inhibition at 0.16 mg/kg, ip qd measured on day 33 relative to control; assay type: functional; conditions: SET-2, ip, 792 h, read-out: TGI
[28] = tested on: MV4-11; experiment: Growth inhibition of human MV4-11 cells after 10 days by CellTiter-Glo assay; assay type: functional; conditions: MV4-11, 240 h
[29] = molecular target: Cyclin-dependent kinase 8/Cyclin-C (Mus musculus, UniProt Q8R3L8); experiment: Inhibition of CDK8/Cyclin-C in R848-stimulated mouse BMDC assessed as upregulation of IL-10 level; assay type: cell-based
[30] = molecular target: Cyclin-dependent kinase 8 (Homo sapiens, UniProt P49336); experiment: Inhibition of CDK8 (unknown origin)
[31] = molecular target: T2, Cyclin-dependent kinase 19; experiment: Inhibition of CDK19 (unknown origin)

T1 sequence (P49336 whole entry): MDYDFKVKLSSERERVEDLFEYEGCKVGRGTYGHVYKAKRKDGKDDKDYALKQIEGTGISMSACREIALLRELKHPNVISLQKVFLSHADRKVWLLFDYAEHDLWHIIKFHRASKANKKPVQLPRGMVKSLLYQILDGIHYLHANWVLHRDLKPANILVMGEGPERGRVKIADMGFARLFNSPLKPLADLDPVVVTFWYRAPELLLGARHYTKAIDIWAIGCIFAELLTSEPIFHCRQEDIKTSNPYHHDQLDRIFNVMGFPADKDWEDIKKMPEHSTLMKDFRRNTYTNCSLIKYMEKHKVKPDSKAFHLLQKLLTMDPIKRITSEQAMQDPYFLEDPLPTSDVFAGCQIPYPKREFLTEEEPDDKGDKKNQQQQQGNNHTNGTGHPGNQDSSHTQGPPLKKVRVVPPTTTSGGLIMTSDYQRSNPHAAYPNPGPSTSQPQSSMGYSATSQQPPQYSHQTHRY
T1 sequence (P24863 whole entry, further chain): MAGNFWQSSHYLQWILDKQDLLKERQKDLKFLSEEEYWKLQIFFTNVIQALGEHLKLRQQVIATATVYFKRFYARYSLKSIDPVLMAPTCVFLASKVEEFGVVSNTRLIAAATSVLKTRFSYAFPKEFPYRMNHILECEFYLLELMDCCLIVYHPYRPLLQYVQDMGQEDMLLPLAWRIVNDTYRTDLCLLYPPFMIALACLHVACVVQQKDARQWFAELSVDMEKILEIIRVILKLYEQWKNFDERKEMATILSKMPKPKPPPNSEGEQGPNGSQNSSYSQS
T2 sequence (Q9BWU1 whole entry): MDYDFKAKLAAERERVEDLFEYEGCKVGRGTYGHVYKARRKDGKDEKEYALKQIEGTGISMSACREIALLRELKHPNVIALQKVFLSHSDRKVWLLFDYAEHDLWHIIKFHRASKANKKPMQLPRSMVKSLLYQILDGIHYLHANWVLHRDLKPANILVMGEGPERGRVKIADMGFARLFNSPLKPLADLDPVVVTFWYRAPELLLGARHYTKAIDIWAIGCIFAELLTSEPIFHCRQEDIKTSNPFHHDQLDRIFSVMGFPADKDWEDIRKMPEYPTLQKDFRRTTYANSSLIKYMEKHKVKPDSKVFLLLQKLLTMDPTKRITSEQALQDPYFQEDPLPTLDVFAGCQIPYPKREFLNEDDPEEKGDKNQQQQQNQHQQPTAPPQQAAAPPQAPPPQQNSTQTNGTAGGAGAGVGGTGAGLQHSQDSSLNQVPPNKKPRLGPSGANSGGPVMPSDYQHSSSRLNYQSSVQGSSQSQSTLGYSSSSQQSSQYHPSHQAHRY
Chain of Cyclin-dependent kinase 8/Cyclin-C (Q8R3L8 whole entry): as the sequence (P49336 whole entry) above, with Q82L, D366E, N372T, S394G, T396A counted along it
Chain of Cyclin-dependent kinase 8/Cyclin-C (Q62447 whole entry, further chain): as the sequence (P24863 whole entry, further chain) above, with A112T, M171V counted along it
Chain of Rho-associated protein kinase 1 (Q13464 whole entry): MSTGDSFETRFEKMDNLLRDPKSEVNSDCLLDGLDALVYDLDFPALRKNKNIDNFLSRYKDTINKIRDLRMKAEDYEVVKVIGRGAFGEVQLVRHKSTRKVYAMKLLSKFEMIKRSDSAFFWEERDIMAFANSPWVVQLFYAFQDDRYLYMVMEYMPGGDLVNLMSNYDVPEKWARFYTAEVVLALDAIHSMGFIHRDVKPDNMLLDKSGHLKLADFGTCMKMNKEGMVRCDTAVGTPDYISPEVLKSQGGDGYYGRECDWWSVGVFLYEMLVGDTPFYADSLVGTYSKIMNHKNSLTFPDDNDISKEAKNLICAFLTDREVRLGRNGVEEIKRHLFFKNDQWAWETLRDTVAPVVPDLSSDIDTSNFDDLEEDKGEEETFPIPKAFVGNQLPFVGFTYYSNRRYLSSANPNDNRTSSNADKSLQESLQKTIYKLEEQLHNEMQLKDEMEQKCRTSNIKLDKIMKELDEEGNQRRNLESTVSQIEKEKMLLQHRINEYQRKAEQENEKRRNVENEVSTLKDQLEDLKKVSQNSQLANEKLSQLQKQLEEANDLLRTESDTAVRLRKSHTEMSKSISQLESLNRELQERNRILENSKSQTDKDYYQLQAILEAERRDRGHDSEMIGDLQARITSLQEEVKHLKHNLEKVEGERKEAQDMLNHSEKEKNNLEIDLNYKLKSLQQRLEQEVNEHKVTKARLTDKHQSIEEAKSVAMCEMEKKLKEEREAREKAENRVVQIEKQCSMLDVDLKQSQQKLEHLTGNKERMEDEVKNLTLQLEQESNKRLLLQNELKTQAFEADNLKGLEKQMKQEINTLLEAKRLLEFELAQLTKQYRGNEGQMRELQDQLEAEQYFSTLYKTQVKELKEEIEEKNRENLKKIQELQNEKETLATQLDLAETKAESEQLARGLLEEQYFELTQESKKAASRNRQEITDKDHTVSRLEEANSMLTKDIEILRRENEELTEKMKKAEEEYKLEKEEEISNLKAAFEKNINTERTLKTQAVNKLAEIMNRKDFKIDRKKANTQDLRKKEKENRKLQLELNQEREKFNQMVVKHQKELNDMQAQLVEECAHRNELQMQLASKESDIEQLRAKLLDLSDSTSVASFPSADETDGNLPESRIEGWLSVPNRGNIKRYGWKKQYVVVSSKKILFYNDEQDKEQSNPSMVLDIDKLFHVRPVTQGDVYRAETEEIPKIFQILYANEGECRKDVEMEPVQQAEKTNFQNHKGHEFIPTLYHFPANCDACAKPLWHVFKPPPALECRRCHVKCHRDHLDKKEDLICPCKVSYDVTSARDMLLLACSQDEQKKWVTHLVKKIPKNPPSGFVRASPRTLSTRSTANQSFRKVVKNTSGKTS
Chain of Mitogen-activated protein kinase kinase kinase 19 (Homo sapiens) (Q56UN5 whole entry): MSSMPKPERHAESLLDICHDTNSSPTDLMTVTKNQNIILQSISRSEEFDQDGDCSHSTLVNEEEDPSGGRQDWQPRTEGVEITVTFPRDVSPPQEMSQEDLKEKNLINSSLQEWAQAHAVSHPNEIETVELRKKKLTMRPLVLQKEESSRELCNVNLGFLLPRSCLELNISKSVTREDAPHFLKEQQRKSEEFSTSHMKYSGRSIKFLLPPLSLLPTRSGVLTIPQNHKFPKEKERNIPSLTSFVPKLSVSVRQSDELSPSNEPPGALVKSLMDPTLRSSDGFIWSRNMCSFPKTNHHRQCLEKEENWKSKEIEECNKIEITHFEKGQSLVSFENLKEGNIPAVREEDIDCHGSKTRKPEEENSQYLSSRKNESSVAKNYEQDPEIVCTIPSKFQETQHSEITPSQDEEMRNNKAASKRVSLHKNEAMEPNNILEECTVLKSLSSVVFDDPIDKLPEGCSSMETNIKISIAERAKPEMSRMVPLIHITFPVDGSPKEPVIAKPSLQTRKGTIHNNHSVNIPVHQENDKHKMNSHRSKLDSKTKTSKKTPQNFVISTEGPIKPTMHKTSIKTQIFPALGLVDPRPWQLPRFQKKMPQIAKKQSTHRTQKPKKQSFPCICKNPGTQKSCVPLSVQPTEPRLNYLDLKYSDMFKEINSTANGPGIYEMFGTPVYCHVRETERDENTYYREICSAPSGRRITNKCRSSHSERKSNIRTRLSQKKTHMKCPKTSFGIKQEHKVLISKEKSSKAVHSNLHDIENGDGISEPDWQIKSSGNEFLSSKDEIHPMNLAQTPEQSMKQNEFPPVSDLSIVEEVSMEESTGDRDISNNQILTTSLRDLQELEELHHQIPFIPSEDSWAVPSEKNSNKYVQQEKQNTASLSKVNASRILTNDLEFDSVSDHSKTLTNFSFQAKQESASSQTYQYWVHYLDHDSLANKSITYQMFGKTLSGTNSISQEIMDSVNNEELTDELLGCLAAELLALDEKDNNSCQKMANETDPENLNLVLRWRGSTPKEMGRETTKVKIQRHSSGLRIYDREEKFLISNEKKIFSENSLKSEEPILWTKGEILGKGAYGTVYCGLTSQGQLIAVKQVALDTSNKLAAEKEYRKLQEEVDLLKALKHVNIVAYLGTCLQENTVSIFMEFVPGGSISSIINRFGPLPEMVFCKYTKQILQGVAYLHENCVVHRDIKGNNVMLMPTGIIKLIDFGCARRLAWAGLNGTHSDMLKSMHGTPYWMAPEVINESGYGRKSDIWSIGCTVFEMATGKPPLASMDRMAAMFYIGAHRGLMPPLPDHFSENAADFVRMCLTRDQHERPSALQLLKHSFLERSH
Chain of Cyclin-dependent kinase 8 (P49336 whole entry): as the sequence (P49336 whole entry) above
Chain of Mitogen-activated protein kinase kinase kinase kinase 2 (Homo sapiens) (Q12851 whole entry): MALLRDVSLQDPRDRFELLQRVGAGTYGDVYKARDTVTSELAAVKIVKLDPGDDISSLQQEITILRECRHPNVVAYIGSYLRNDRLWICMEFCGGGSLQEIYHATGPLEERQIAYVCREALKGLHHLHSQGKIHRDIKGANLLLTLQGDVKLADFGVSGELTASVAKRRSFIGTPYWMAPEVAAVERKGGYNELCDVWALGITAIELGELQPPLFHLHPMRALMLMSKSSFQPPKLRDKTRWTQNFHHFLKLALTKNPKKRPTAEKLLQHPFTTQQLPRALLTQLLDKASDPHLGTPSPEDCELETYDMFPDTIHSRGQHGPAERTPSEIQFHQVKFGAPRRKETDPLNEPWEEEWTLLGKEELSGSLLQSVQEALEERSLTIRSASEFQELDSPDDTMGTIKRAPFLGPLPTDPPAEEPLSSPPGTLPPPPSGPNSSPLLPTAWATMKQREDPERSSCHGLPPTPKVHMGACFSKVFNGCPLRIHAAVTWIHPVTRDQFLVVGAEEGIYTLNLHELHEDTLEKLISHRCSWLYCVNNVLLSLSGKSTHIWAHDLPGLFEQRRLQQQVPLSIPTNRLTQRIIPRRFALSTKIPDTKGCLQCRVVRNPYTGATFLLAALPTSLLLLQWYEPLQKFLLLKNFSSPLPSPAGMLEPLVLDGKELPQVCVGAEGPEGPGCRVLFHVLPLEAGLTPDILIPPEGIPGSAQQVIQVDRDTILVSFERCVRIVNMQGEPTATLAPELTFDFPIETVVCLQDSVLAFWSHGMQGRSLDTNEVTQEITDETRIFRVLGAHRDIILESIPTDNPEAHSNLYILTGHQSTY
Chain of Cyclin-C/Cyclin-dependent kinase 19 (Q9BWU1 whole entry): as the sequence (Q9BWU1 whole entry) above
Chain of Cyclin-C/Cyclin-dependent kinase 19 (P24863 whole entry, further chain): as the sequence (P24863 whole entry, further chain) above

## CCN1CCN(Cc2ccc(NC(=O)N[C@@H]3CCN(c4ccnc(NC)n4)C3)cc2C(F)(F)F)CC1
[1]
  IC50: > 10000 nM
[2]
  inhibition: 74%

## Cc1c(Br)c(Br)c2c3c1nc(N1CCNCC1)n3CCC2 [SEL-120 FREE BASE]
[3]
  GI50: < 1000 nM
[4]
  IC50: 4 nM
[5]
  GI50: < 1000 nM
[6]
  IC50: 10 nM
[7]
  GI50: < 1000 nM
[8]
  GI50: < 1000 nM
[9]
  GI50: < 1000 nM
[10]
  GI50: < 1000 nM
[11]
  GI50: < 1000 nM
[12]
  GI50: < 1000 nM

## CN1CCN(C(=O)c2ccc3cc(CCNc4ncnc5ccc(C#N)cc45)ccc3c2)CC1
[13]
  inhibition: 69%
[14]
  inhibition: 59%

## N#Cc1ccc2ncnc(NCCc3ccccc3)c2c1
[15]
  IC50: 280 nM

## CN(C)[C@H]1C[C@@]23CC[C@@]4(O2)C(=CC[C@]2(C)[C@@H](c5ccc6ccncc6c5)CC[C@H]24)C=C3[C@@H](O)[C@@H]1O
[16]
  IC50: 250 nM
[17]
  GI50: 360 nM
[18]
  IC50: 220 nM
[19]
  GI50: 7 nM
[20]
  GI50: 9 nM
[21]
  GI50: 5 nM
[22]
  GI50: > 1000 nM
[23]
  GI50: 1 nM
[24]
  GI50: 3 nM
[25]
  GI50: 4 nM
[26]
  IC50: 10 nM
[27]
  inhibition in vivo at 0.16 mg/kg: 70%
[28]
  GI50: 6 nM

## CC1CCc2nc(N)c(C#N)c(-c3cccnc3)c2C1 (stereo unspecified)
[29]
  EC50: 1400 nM
[30]
  IC50: 500 nM
[31]
  IC50: 30000 nM
